These are literature values, as cited in the CATMoS acute toxicity set (Mansouri et al. 2021).

Each structure is given as a SMILES string.

Broadly, the LD50 is the dose at which mortality reaches 50%.

This data set can be described thus: rat acute oral toxicity. To be noted: in vivo.
In the case of `C[C@H]1[C@H](c2ccccc2)OCCN1C`, the median lethal dose (LD50) was 455 mg/kg.
For the compound `O=C(OCC(Br)(Br)Br)c1ccco1`, the LD50 was 1500 mg/kg.
In the case of `S=c1[nH]c2cc(Cl)ccc2o1`, the LD50 is 1000 mg/kg.
`Cc1ccc(N2C(=O)C=CC2=O)cc1N1C(=O)C=CC1=O`: the median lethal dose (LD50) was 2400 mg/kg.
For `COc1c(F)c(F)c2[nH]c(C(F)(F)F)nc2c1F`, the 50% lethal dose (LD50) was 2.89 mg/kg.
`CCc1ccccc1N`: the LD50 was 1260 mg/kg.
In the case of `CCCCN=C(NCCCC)C(OCC)c1ccc(Cl)cc1` (stereo unspecified), the 50% lethal dose (LD50) is 220 mg/kg.
As to `CCOP(=S)(OCC)Oc1cc([N+](=O)[O-])c(Cl)cc1Cl`, the LD50 is 100 mg/kg.
`CO[C@@H]1[C@@H](OC(N)=O)[C@@H](O)[C@H](Oc2ccc3c(O)c(NC(=O)c4ccc(O)c(CC=C(C)C)c4)c(=O)oc3c2C)OC1(C)C`: the LD50 is 3500 mg/kg.
Turning to `Cn1c(=O)c2c(ncn2CCOC(=O)C(C)(C)Oc2ccc(Cl)cc2)n(C)c1=O`, the LD50 is 17000 mg/kg.
Take `COc1ccc(C=Nc2c(C)n(C)n(-c3ccccc3)c2=O)cc1`: the LD50 was 10000 mg/kg.
With `CN(C)C1CCCCC1`, the LD50 was 348 mg/kg.
In the case of `CC(=O)Oc1ccccc1C(=O)OC(=O)c1ccccc1OC(C)=O`, the LD50 is 2200 mg/kg.
With `CC(C)(C)C(O)C(=Cc1ccc(Cl)cc1Cl)n1cncn1` (stereo unspecified), the LD50 was 474 mg/kg.
As for `CC(=O)OC1c2c(ccc3ccc(=O)oc23)OC(C)(C)C1OC(=O)C=C(C)C` (stereo unspecified), the LD50 was 832 mg/kg.
On to `CCOc1ccccc1OS(=O)(=O)NC(O)=Nc1nc(OC)cc(OC)n1`, for which the 50% lethal dose (LD50) was 2910 mg/kg.
Take `CC(=O)SCC[N+](C)(C)C`: the LD50 is 100 mg/kg.
Regarding `C=COC(=O)CCC`, the LD50 is 8530 mg/kg.
Consider `CC(=O)OCC(C)c1ccccc1` (stereo unspecified), for which the LD50 was 4300 mg/kg.
As for `O=S(=O)(c1cccc2cnccc12)N1CCCNCC1`, the LD50 was 335 mg/kg.
Turning to `CCOP(=S)(N=C1SCCS1)OCC`, the LD50 is 14 mg/kg.
On to `CCCN(CCCCOC(=O)c1ccc(OC)c(OC)c1)C1CCc2cc(OC)ccc2C1` (stereo unspecified), for which the LD50 was 707 mg/kg.
Turning to `COP(=O)(OC)OC(C)=CC(=O)OCc1ccccc1`, the LD50 is 56 mg/kg.
With `CC1=C(C(=O)OCCN(C)Cc2ccc(F)cc2)C(c2cccc3c2OCO3)C(C(=O)OC(C)C)=C(C)N1` (stereo unspecified), the LD50 is 64 mg/kg.
Regarding `ClC1(Cl)C2(Cl)C3C4(Cl)C1(Cl)C1(Cl)C4(Cl)C(Cl)(Cl)C3(Cl)C21Cl` (stereo unspecified), the LD50 is 200 mg/kg.
As to `CCSP(=O)(CCl)SCC`, the LD50 was 35 mg/kg.
For `CC(C)=CCC1C(=O)N(c2ccccc2)N(c2ccccc2)C1=O`, the LD50 was 1340 mg/kg.
`CSCC(=NO)C(C)(C)C`: the LD50 is 813 mg/kg.
As to `CSc1ccc2c(c1)N(CCCN(C)C)c1ccccc1S2`, the LD50 was 1450 mg/kg.
In the case of `O=c1[nH]c2cc(Cl)c(Br)cc2o1`, the median lethal dose (LD50) is 500 mg/kg.
Consider `CC(=O)Nc1cccc(N=Nc2ccc(N(C)C)cc2)c1`, for which the LD50 is 5910 mg/kg.
Consider `Cc1ccc([N+](=O)[O-])cc1S(=O)(=O)Cl`, for which the LD50 is 7470 mg/kg.
For the compound `COc1ccccc1OCC(O)COC(N)=O` (stereo unspecified), the LD50 was 1320 mg/kg.
Regarding `FCOC(C(F)(F)F)C(F)(F)F`, the LD50 is 10800 mg/kg.
Take `C=CCc1ccc(OC)cc1`: the LD50 is 1230 mg/kg.
`CC(C)(O)C(=O)c1ccc(OCCO)cc1`: the 50% lethal dose (LD50) was 4080 mg/kg.
`CCCCCCCCCC(=O)OC1(c2ccc(Cl)cc2)CCN(CCCC(=O)c2ccc(F)cc2)CC1`: the LD50 was 1720 mg/kg.
On to `O=[N+]([O-])c1cccc2nc3ccccc3c(NCCN(CCO)CCO)c12`, for which the LD50 is 176 mg/kg.
Consider `CCN(CC)CCOC(=O)c1ccc(N)cc1`, for which the median lethal dose (LD50) was 200 mg/kg.
Regarding `CCCCCCCCOC(C[n+]1ccccc1)c1ccc(C2CCCC2)cc1` (stereo unspecified), the LD50 was 250 mg/kg.
`CC(C)(C(=O)O)S(C)(=O)=O`: the 50% lethal dose (LD50) is 5700 mg/kg.
On to `CN(C)c1ccc(N=Nc2cccc(C(=O)O)c2)cc1`, for which the LD50 was 3760 mg/kg.
In the case of `CCOC(=S)C=Cc1cc(OC)c(OC)c(OC)c1`, the LD50 is 1000 mg/kg.
Take `O=C(Cl)C(c1ccccc1)c1ccccc1`: the LD50 is 6330 mg/kg.
Consider `CN1CCCN=C1COC(=O)C(O)(c1ccccc1)C1CCCCC1` (stereo unspecified), for which the LD50 was 1370 mg/kg.
Consider `CCOC(OCC)OCC`, for which the LD50 was 7060 mg/kg.
For `COc1cc2c(cc1OC)[C@@]13CCN4CC5=CCO[C@H]6CC(=O)N2[C@H]1[C@H]6[C@H]5C[C@H]43`, the LD50 was 1 mg/kg.
With `CCSP(=O)(OC)SCC`, the LD50 is 158 mg/kg.
Turning to `ClCC1C(CCl)C2(Cl)C(Cl)=C(Cl)C1(Cl)C2(Cl)Cl` (stereo unspecified), the LD50 was 200 mg/kg.
As for `Nc1ccc2cc(S(=O)(=O)O)cc(O)c2c1N=Nc1ccc(-c2ccc(N=Nc3ccc(O)c(C(=O)O)c3)cc2)cc1`, the LD50 was 22400 mg/kg.
Consider `CCCCCCCCCCCC[N+](C)(C)Cc1ccc(Cl)c(Cl)c1`, for which the 50% lethal dose (LD50) is 730 mg/kg.
On to `O=C1NC(=O)C(=O)C(=O)N1`, for which the median lethal dose (LD50) was 5210 mg/kg.
For the compound `Cc1cc(C)c(Cc2cc(C)c(C)cc2C)cc1C`, the LD50 was 4500 mg/kg.
On to `Cc1cc(Cl)ccc1NC(=S)N(C)C`, for which the LD50 is 2500 mg/kg.
With `N#CSc1ccc(N)cc1`, the LD50 is 240 mg/kg.
On to `CNC(C)CC1CCCCC1` (stereo unspecified), for which the LD50 is 83 mg/kg.
As for `CC(O)=S`, the 50% lethal dose (LD50) was 200 mg/kg.
Consider `COc1ccc(CN2CCNCC2)c(OC)c1OC`, for which the LD50 is 1700 mg/kg.
As for `COc1ccc(C(=C(c2ccccc2)[N+](=O)[O-])c2ccc(OCCN3CCCC3)cc2)cc1`, the LD50 was 1780 mg/kg.
As to `CN1CCN(C(=O)Cn2c(=O)sc3ccc(Cl)cc32)CC1`, the LD50 is 640 mg/kg.
`CCN(CC)CCNC(=O)c1cc(Cl)c(N)cc1OCc1ccccc1`: the LD50 is 220 mg/kg.
